Assay [1] relates to the other serotypes (salmonella). The assay can be described thus: Example 3: esterase substrate preference, conclusion from table 4. Type of assay: cell-based. Particulars: coloration intensities being stronger for this substrate. The procedure: (§1) The media thus constituted were distributed into Petri dishes.
(§2) Various salmonella serotypes were inoculated, using a 10 μl calibrated loop, onto each medium, using calibrated suspensions of 0.5 McFarland. All the cultures were incubated for 24 h at 37° C.
(§3) The growth and coloration results obtained at 24 h of incubation are given in table 3, in which G signifies growth, C signifies color, I signifies colorless, In signifies coloration intensity, the sign ++ signifies very good growth, the sign + signifies good growth of the strain, the sign +/− signifies moderate growth of the strain and the sign − signifies lack of growth of the strain. 1 corresponds to a weak coloration intensity, 2 corresponds to moderate and 3 corresponds to strong.
As a result of this, a medium containing these two substrates of the same enzymatic activity makes it possible to obtain colored colonies for the various salmonella serotypes, and to separate the Dublin serotype from the other salmonella serotypes and from bacteria not expressing esterase.

In assay [2] the test system is S. enteritidis serotype Dublin. The assay can be described thus: Example 3: colony color, coloration intensity and growth on Columbia agar with esterase substrates. As to conditions: X—C8 versus Magenta-C8. Type of assay: cell-based. The procedure: as §1, §2, §3

With `CCCCCCCC(=O)Oc1c[nH]c2cc(Cl)c(Br)cc12` [Magenta-C8, 5-Bromo-6-Chloro-3-Indoxyl Octanoate], in assay [1], the “preferential hydrolysis by esterase activity” value is given as “preferentially hydrolyze Magenta-C8”.
Take `CCCCCCCC(=O)Oc1c[nH]c2ccc(Br)c(Cl)c12` [X—C8, 5-Bromo-4-Chloro-3-Indoxyl Octanoate]: the “specificity of hydrolysis by esterase activity” value in assay [2] is given as “hydrolyzes X—C8 more specifically than Magenta-C8”.
